Test system: oxotremorine-induced salivary secretion
Assay: Test on salivary secretion in rat
Type: in vivo
Details: urethane-anesthetized male Wistar rat, oxotremorine 0.8 μmol/kg
Procedure: A male Wistar rat (160-190 g) was subjected to anesthesia with urethane (0.8 g/kg i.p.), and the test compound was administered (to the control group: solvent). Fifteen minutes later, 0.8 μmol/kg of oxotremorine was administered. In each case, the drug was administered through its femoral artery. The saliva secreted for 5 minutes after the administration of oxotremorine was collected and weighed. The inhibition ratio against the amount of saliva in the control group was determined and the dose of the test compound required for 50% inhibition of the amount of saliva in the control group was designated as ID50.

Structure (SMILES): CN1[C@@H]2CC[C@H]1C[C@@H](OC(=O)C(CO)c1ccccc1)C2 (stereo partly shown) [atropine]
- ID50 value (salivary secretion) compared with ED30 value (rhythmic bladder contraction): substantially the same

Reference: patent publication US6174896A, “Quinuclidine derivatives and medicinal composition thereof” (Yamanouchi Pharmaceutical Co., Ltd., priority 1994, dated 2001)
